Measured values reported in PubChem BioAssay (NCI).
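A five-concentration, 48-hour dose response in 96-well plates underlies each endpoint, interpolated linearly between surrounding concentrations. GI50: concentration for 50% inhibition of growth. TGI denotes the concentration required for complete inhibition of growth.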 Where a SMILES comes first, the peptide text is derived from it. [ ]: non-standard residue; d: D form. pGlu = O=C1CC[CH](C(=O)O)N1

Assays:
Assay in all cases: NCI tumour cell line growth inhibition, 48 h
[1] = tested on: SNB-19 CNS
[2] = tested on: UACC-257 melanoma
[3] = tested on: BT-549 breast
[4] = tested on: UO-31 renal
[5] = tested on: HOP-92 NSCLC
[6] = tested on: NCI/ADR-RES ovarian
[7] = tested on: K-562 leukemia
[8] = tested on: OVCAR-3 ovarian
[9] = tested on: HL-60(TB) leukemia
[10] = tested on: MALME-3M melanoma

For `C=C(C)[C@@H]1CC[C@]2(C)CC[C@]3(C)[C@H](CC[C@@H]4[C@@]5(C)CC[C@H](O)C(C)(C)[C@@H]5CC[C@]43C)[C@@H]12`, the TGI [1] was over 62.8 µM, the TGI [2] was over 80.8 µM and the TGI [3] was 29.3 µM. The TGI [4] was over 72.1 µM, the TGI [5] was over 100 µM and the TGI [6] was over 100 µM. For the same compound, the TGI [7] was over 68.8 µM, the TGI [8] was over 100 µM and the TGI [9] was over 100 µM. For the same compound, the TGI [10] was over 100 µM.

In the case of `Oc1c(-c2nnc(-c3ccccc3Cl)o2)sc2nnc(-c3ccccc3)c(-c3ccccc3)c12`, the GI50 [1] is reported as 4.37 µM, the TGI [1] is reported as over 100 µM and the GI50 [2] is reported as 8.09 µM. It also gave a TGI [2] of 62.7 µM, a GI50 [3] of 12.6 µM and a TGI [3] of over 100 µM. The GI50 [4] was 2.38 µM, the TGI [4] was 8.4 µM and the GI50 [5] was 1.81 µM. For the same compound, the GI50 [6] was 1.09 µM, the TGI [6] was over 100 µM and the GI50 [7] was 3.28 µM. For the same compound, the TGI [7] was over 100 µM, the GI50 [8] was 2.64 µM and the TGI [8] was 8 µM. The GI50 [9] was 4.16 µM, the TGI [9] was over 100 µM and the GI50 [10] was 4.22 µM. The TGI [10] was 33.1 µM.

`CN(Cc1ccccc1)C(=NC#N)N(Cc1ccccc1)Cc1ccccc1` showed a TGI [1] of over 100 µM, a TGI [2] of 54.4 µM and a TGI [3] of 49.6 µM. It also gave a TGI [4] of over 84.2 µM, a TGI [5] of 55.1 µM and a TGI [6] of 56.1 µM. The TGI [7] was over 100 µM, the TGI [8] was 44.7 µM and the TGI [9] was over 100 µM. The TGI [10] was 67.1 µM.

In the case of `O=C1C(Cl)=C(Nc2cccc(Cl)c2)C(=O)N1Cc1ccc(Cl)cc1`, the GI50 [1] is reported as 4.06 µM, the TGI [1] is reported as 33 µM and the GI50 [2] is reported as 6.39 µM. For the same compound, the TGI [2] was 28.2 µM, the GI50 [3] was 0.338 µM and the TGI [3] was 2.84 µM. The GI50 [4] was 1.74 µM, the TGI [4] was 24.5 µM and the GI50 [5] was 1.3 µM. It also gave a TGI [5] of 4.96 µM, a GI50 [6] of 0.298 µM and a TGI [6] of 3.28 µM. For the same compound, the GI50 [7] was 0.858 µM, the TGI [7] was over 94.1 µM and the GI50 [8] was 0.784 µM. For the same compound, the TGI [8] was 6.24 µM, the GI50 [9] was 1.65 µM and the TGI [9] was 15.7 µM. It also gave a GI50 [10] of 0.137 µM and a TGI [10] of 2.84 µM.

Work on `CC(=O)NC1C(OC[C@@H](CC(=O)N[C@@H](CC(=O)O)CC(=O)N[C@H](CC(=O)N[C@@H](CCCN)CC(=O)N[C@@H](CCCN)CC(=O)N[C@H](CC(N)=O)C(C)C)C(C)C)NC(=O)C[C@@H](N)C(C)C)OC(CO)C(O)C1O` (some centres undefined) yielded a GI50 [1] of over 100 µM, a TGI [1] of over 100 µM and a GI50 [2] of over 100 µM. For the same compound, the TGI [2] was over 100 µM, the GI50 [3] was over 100 µM and the TGI [3] was over 100 µM. The GI50 [4] was over 100 µM, the TGI [4] was over 100 µM and the GI50 [5] was over 100 µM. It also gave a TGI [5] of over 100 µM, a GI50 [6] of over 100 µM and a TGI [6] of over 100 µM. The GI50 [7] was over 100 µM, the TGI [7] was over 100 µM and the GI50 [8] was over 100 µM. For the same compound, the TGI [8] was over 100 µM, the GI50 [9] was over 100 µM and the TGI [9] was over 100 µM. For the same compound, the GI50 [10] was over 100 µM and the TGI [10] was over 100 µM.

Compound `CCNC(=O)C1CCCN1C(=O)C(CCCN=C(N)N)NC(=O)C(CC(C)C)NC(=O)C(CC(C)C)NC(=O)C(Cc1ccc(O)cc1)NC(=O)C(CO)NC(=O)C(Cc1c[nH]c2ccccc12)NC(=O)C(Cc1cnc[nH]1)NC(=O)C1CCC(=O)N1` (centres undefined) ([pGlu]HWSYLLRP-NHEt; configuration not given here) has a GI50 [1] of over 100 µM, a TGI [1] of over 100 µM and a GI50 [2] of over 100 µM. The TGI [2] was over 100 µM, the GI50 [3] was over 100 µM and the TGI [3] was over 100 µM. For the same compound, the GI50 [4] was over 100 µM, the TGI [4] was over 100 µM and the GI50 [5] was over 100 µM. The TGI [5] was over 100 µM, the GI50 [6] was over 100 µM and the TGI [6] was over 100 µM. It also gave a GI50 [7] of over 100 µM, a TGI [7] of over 100 µM and a GI50 [8] of over 100 µM. It also gave a TGI [8] of over 100 µM, a GI50 [9] of over 100 µM and a TGI [9] of over 100 µM. It also gave a GI50 [10] of over 100 µM and a TGI [10] of over 100 µM.
